Results taken from patent publication US8999931B2, “Pharmaceutical composition using gonadotropin-releasing hormone (GNRH) combined variants as immunogen” (Centro de Ingenieria Genetica y Biotecnologia, priority 2008, dated 2015).
Where “and” joins values, the source holds several entries; their conditions need not be identical. Equal entries are not always repeated. Where two headings read alike, the source gives them in different places.

What was measured:
testicles = experiment: Testicles weight evaluation at slaughter (100 days), treatment effect; format: in vivo, Copenhagen rats; details: mean testicles weight vs placebo at slaughter (100 days); healthy adult rats, 750 μg total peptide
prostate = experiment: Prostate weight evaluation at slaughter (100 days), treatment effect; format: in vivo, Copenhagen rats; details: mean prostate weight vs placebo at slaughter (100 days); healthy adult rats, 750 μg total peptide
native GnRH peptide = format: in vivo, Copenhagen rats; details: for anti-GnRH antibodies titers: 750 μg total peptide, fortnightly s.c.
testosterone = experiment: Testosterone levels determination / testosterone ablation after immunization; format: in vivo; details: oily adjuvant (Montanide type); 2 immunizations in prepuberous animals, 3 or 4 immunizations in adult animals

| Sequence | Effect on Testicles (Etreatment=1−(Ptreatment/Pplacebo)) (testicles) | Effect on Prostate (Etreatment=1−(Ptreatment/Pplacebo)) (prostate) | seroconversion (anti-GnRH) (native GnRH peptide; after the first immunization, s.c., Montanide adjuvant) | testosterone ablation (testosterone) | seroconversion (anti-GnRH) (native GnRH peptide; after the fourth immunization, oily adjuvant (Montanide type)) [%] | seroconversion (anti-GnRH) (native GnRH peptide; after the third immunization, s.c., Montanide adjuvant) [%] | anti-GnRH response relative to TT-GnRHm1 variant (native GnRH peptide; doses equal to the TT-GnRHm1 variant) [times weaker] | highest anti-GnRH antibodies titers reached (native GnRH peptide; over the whole experiment (5 immunizations, 100 days)) | anti-GnRH antibodies titers (native GnRH peptide; after 75 days of the beginning of experiment) | anti-GnRH antibodies titers (native GnRH peptide; after 100 days / at the end of the experiment) |
| --- | --- | --- | --- | --- | --- | --- | --- | --- | --- | --- |
| IPGVAYTSPEVAWVGGGGQHWSYPLRP (GnRHm1 bonded at its amino-terminal end to the peptide P48 of the protein P64K of Neisseria meningitidis) [P48-P64K-GnRHm1] | 0.49 | 0.28 | 100% and 90% |  |  |  |  |  |  |  |
| QHWSYPLRPGGGQYIKANSKFIGITEL (Chemical synthesis of the peptide.GnRHm1Tox.) [GnRHm1-TT] | 0.43 | 0.41 |  | potent effect | 90 | 90 | 10 | 1/1000 |  |  |
| QYIKANSKFIGITELGGQ HWSYPLRPG (QYIKANSKFIGITELGGQHWSYPLRPG; GnRHm1 bonded at its amino-terminal end to epitope 830-844 of the tetanus toxoid) [TT-GnRHm1] | 0.55 | 0.42 |  |  |  |  |  |  | 1/6000 | 1/12000 |
